Key:
Human renin = molecular target: T1, Human renin (Homo sapiens, UniProt P00797); experiment: human renin inhibition test; type: biochemical; conditions: human plasma substrate, pH 7.4, two hours at 37° C., angiotensin I by radioimmunoassay
T1 construct: purchased National Institute for Biological Standards, London
T1 sequence (P00797 67-406): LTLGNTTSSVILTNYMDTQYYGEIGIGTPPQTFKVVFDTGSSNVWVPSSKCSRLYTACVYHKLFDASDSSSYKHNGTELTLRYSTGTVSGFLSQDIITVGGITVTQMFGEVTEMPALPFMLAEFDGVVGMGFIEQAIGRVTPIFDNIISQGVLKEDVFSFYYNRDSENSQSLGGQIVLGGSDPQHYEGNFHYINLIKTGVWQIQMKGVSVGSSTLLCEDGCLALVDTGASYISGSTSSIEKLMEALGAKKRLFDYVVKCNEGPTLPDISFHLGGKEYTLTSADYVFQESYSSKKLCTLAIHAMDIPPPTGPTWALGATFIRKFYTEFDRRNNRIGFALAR
Description: The human renin inhibition test has been previously described in detail in papaioannou, et al. (1985) Clinical and Experimental Hypertension A7(9), 1243-1257. Human renin was obtained from the National Institute for Biological Standards, London. In a total volume of 0.25 mL 100 mM Tris-acetate buffer at pH 7.4, 25 x 10-6 Goldblatt units of renin, 0.05 mL of plasma from human volunteers taking oral contraceptives, 6.0 mM sodium EDTA, 2.4 mM phenylmethyl sulfonyl fluoride, 1.5 mM 8-hydroxyquinoline, 0.4 mg/mL BSA, and 0.024 mg/mL neomycin sulfate were incubated for two hours at 37° C. in the presence or absence of renin inhibitors. The produced angiotensin I was determined by radioimmunoassay (New England Nuclear kit). Compounds of Formula I to be assayed were solubilized in either ethyl alcohol or DMSO and diluted with 100 mM Tris-acetate buffer at pH 7.4 to the appropriate concentration. The final concentration of organic solvent in the reaction mixture was less than 1%. Control incubations at 37° C. were used to correct for effects of organic solvent on renin activity.

Hog renin = experiment: hog renin inhibition assay; type: biochemical; conditions: synthetic tetradecapeptide substrate, pH 7.4, one hour at 37° C., angiotensin I by radioimmunoassay
Description: The hog renin inhibition assay was performed in a manner similar to the human renin assay, with the following modifications. Hog renin was purchased from Sigma Chemical Co. and the synthetic tetradecapeptide substrate was obtained from Peninsula Labs Inc. In a final volume of 0.25 mL 100 mM Tris-acetate buffer at pH 7.4, 0.125m units hog renin, 20 micromolar tetradecapetide, 6 mM disodium EDTA, 3.2 mM phenylmethyl sulfonyl fluoride, 3 mM 8-hydroxyquinoline, 1.2 mg/mL BSA and 0.024 mg/mL neomycin sulfate were incubated for one hour at 37° C. in the presence or absence of renin inhibitors. The amount of angiotensin I produced was determined as for the human renin inhibition assay.

Structure (SMILES) | IC50 (Human renin) [nM] | IC50 (Hog renin) [nM]
CC(CNC(=O)[C@H](Cc1ccccc1)NC(=O)OC(C)(C)C)C(=O)N[C@@H](CC1CCCCC1)[C@@H](O)CO (stereo partly drawn) [Example 8, Boc-L-phenylalaninyl-D,L-α-methyl-β-alaninamide of (2S,3R)-2-amino-1-cylohexyl-3,4-dihydroxybutane] | 2000 | 2100
CC(C)C[C@H](O)[C@H](O)[C@H](CC1CCCCC1)NC(=O)C(C)CNC(=O)[C@H](Cc1ccccc1)NC(=O)OC(C)(C)C (stereo partly drawn) [Example 9, Boc-L-phenylalaninyl-D,L-α-methyl-β-alaninamide of (2S,3R,4S)-2-amino-1-cyclohexyl-3,4-dihydroxy-6-methylheptane] | 210 | 12.5
